# Reference: ChEMBL document CHEMBL1833830, “1-[2-(2-Benzoyl- and 2-benzylphenoxy)ethyl]uracils as potent anti-HIV-1 agents” (Bioorg Med Chem, 2011)
# Calls of active or inactive are those of the source. The rule behind the calls is not given here.
# Assays:
# Punta Toro virus = assay: Antiviral activity against Punta Toro virus assessed as inhibition of viral replication; type: functional, organism-based
# [1] = tested on: Human immunodeficiency virus 2; assay: Antiviral activity against Human immunodeficiency virus type 2 ROD infected in human MT4 cells assessed as inhibition of virus-induced cytopathic effect after 4 days by MTT assay; type: functional, organism-based; details: ISOLATE ROD
# [2] = Solubility of the compound in 10% DMSO after overnight incubation by UV spectrometric analysis; type: physicochemical
# [3] = tested on: Human immunodeficiency virus 1; type: functional, organism-based; details: Human immunodeficiency virus 1, 3B, MT4, 96 h
# [4] = tested on: Respiratory syncytial virus; assay: Antiviral activity against Respiratory syncytial virus assessed as inhibition of viral replication; type: functional, organism-based
# [5] = Solubility of the compound in 0.1% DMSO after overnight incubation by UV spectrometric analysis; type: physicochemical
# Sindbis virus = assay: Antiviral activity against Sindbis virus assessed as inhibition of viral replication; type: functional, organism-based
# Rift Valley fever virus = assay: Antiviral activity against Rift Valley fever virus assessed as inhibition of viral replication; type: functional, organism-based
# Human alphaherpesvirus 1 = assay: Antiviral activity against HSV1 assessed as inhibition of viral replication; type: functional, organism-based
# Human alphaherpesvirus 2 = assay: Antiviral activity against HSV-2 assessed as inhibition of viral replication; type: functional, organism-based
# Dengue virus = assay: Antiviral activity against Dengue virus assessed as inhibition of viral replication; type: functional, organism-based
# Vaccinia virus = assay: Antiviral activity against Vaccinia virus assessed as inhibition of viral replication; type: functional, organism-based; details: Orthopoxvirus vaccinia
# Human respirovirus 3 = assay: Antiviral activity against Parainfluenza 3 virus assessed as inhibition of viral replication; type: functional, organism-based
# Feline coronavirus = assay: Antiviral activity against Feline coronavirus assessed as inhibition of viral replication; type: functional, organism-based
# [6] = Cytotoxicity against human MT4 cells after 4 days by MTT assay; type: cell-based
# [7] = tested on: Human immunodeficiency virus 1; assay: microbe, parasite or virus in culture; details: Human immunodeficiency virus 1, 3B, MT4, 96 h
# [8] = Inhibition of DNA-dependent DNA polymerase activity of HIV1 reverse transcriptase p66/p66 homodimer using activated DNA and [alpha-32P]dATP after 30 mins by liquid scintillation counting; design: species or system Human immunodeficiency virus 1
# Yellow fever virus = assay: Antiviral activity against Yellow fever virus assessed as inhibition of viral replication; type: functional, organism-based
# in vitro [9] = details: human, MT4 cells
# West Nile virus = assay: Antiviral activity against West Nile virus assessed as inhibition of viral replication; type: functional, organism-based
# [10] = tested on: Human immunodeficiency virus 2; assay: Antiviral activity against Human immunodeficiency virus type 2 ROD infected in human CEM cells assessed as inhibition of virus-induced giant cell formation after 4 days by microscopic analysis; type: functional, organism-based; details: ISOLATE ROD, CCRF-CEM
# Coxsackievirus B4 = assay: Antiviral activity against Coxsackievirus B4 assessed as inhibition of viral replication; type: functional, organism-based
# [11] = tested on: Mammalian orthoreovirus 1; assay: Antiviral activity against Reovirus 1 assessed as inhibition of viral replication; type: functional, organism-based
# [12] = target: Human immunodeficiency virus type 1 reverse transcriptase (Human immunodeficiency virus 1, UniProt Q72547); assay: Inhibition of RNA-dependent DNA polymerase activity of HIV1 reverse transcriptase p66/p51 heterodimer using [8-3H]dGTP as substrate after 30 mins by liquid scintillation counting
# in vitro [13] = details: human, MT4 cells; remark: listed apart in the source
# [14] = tested on: Vesicular stomatitis virus; assay: Antiviral activity against Vesicular stomatitis virus assessed as inhibition of viral replication; type: functional, organism-based
# [15] = Cytotoxicity against human CEM cells after 4 days by MTT assay; type: cell-based; details: CEM cells (CCRF-CEM)
# [16] = Selectivity index, ratio of CC50 for human CEM cells to EC50 for HIV1 3B; type: toxicity, cell-based, CCRF-CEM; details: read-out: Ratio CC50/EC50
# [17] = tested on: Human immunodeficiency virus 1; assay: Antiviral activity against HIV1 3B infected in human CEM cells assessed as inhibition of virus-induced giant cell formation after 4 days by microscopic analysis; type: functional, organism-based; details: Human immunodeficiency virus 1, 3B, CCRF-CEM, 96 h
Structure (SMILES),Activity (Punta Toro virus),Activity [1],EC50 [3],Activity [4],Activity (Sindbis virus),Activity (Rift Valley fever virus),Activity (Human alphaherpesvirus 1),Activity (Human alphaherpesvirus 2),Activity (Dengue virus),Activity (Vaccinia virus),Activity (Human respirovirus 3),Activity (Feline coronavirus),Ki [8],Activity (Yellow fever virus),Activity (West Nile virus),Activity [10],Activity (Coxsackievirus B4),Activity [11],Ki [12],Activity [14],further results
Cc1cc(C)cc(C(=O)c2cc(C)ccc2OCCn2ccc(=O)[nH]c2=O)c1,inactive,inactive,> 179000 nM,inactive,inactive,inactive,inactive,inactive,inactive,inactive,inactive,inactive,2400 nM,inactive,inactive,inactive,inactive,inactive,2000 nM,inactive,solubility [2]: 58.5 µM; solubility [5]: 28.9 µM; CC50 at 96 h [6]: 179000 nM; EC50 [7]: 58 nM; selectivity ratio (in vitro [9]): 3080; selectivity ratio (in vitro [13]): < 1
O=C(c1cc(Cl)cc(Cl)c1)c1cc(Br)ccc1OCCn1ccc(=O)[nH]c1=O,inactive,inactive,24800 nM,inactive,inactive,inactive,inactive,inactive,inactive,inactive,inactive,inactive,690 nM,inactive,inactive,inactive,inactive,inactive,160 nM,inactive,solubility [2]: 1.5 µM; solubility [5]: 0.2 µM; CC50 at 96 h [6]: > 258000 nM; EC50 [7]: 17 nM; selectivity ratio (in vitro [9]): > 15200; selectivity ratio (in vitro [13]): > 10
O=C(c1ccccc1)c1cc(Cl)ccc1OCCn1ccc(=O)[nH]c1=O,inactive,inactive,> 337000 nM,inactive,inactive,inactive,inactive,inactive,inactive,inactive,inactive,inactive,980 nM,inactive,inactive,inactive,inactive,inactive,650 nM,inactive,CC50 at 96 h [6]: > 337000 nM; EC50 [7]: 89 nM; selectivity ratio (in vitro [9]): > 3790; selectivity ratio (in vitro [13]): 1
Cc1cc(C)cc(C(O)c2cc(Cl)ccc2OCCn2ccc(=O)[nH]c2=O)c1 (stereo not drawn),inactive,inactive,,inactive,inactive,inactive,inactive,inactive,inactive,inactive,inactive,inactive,> 50000 nM,inactive,inactive,inactive,inactive,inactive,> 249000 nM,inactive,CC50 at 96 h [15]: > 20000 nM; selectivity ratio [16]: > 1; EC50 [17]: ≥ 20000 nM
O=C(c1cc(F)cc(F)c1)c1cc(Cl)ccc1OCCn1ccc(=O)[nH]c1=O,inactive,inactive,> 307000 nM,inactive,inactive,inactive,inactive,inactive,inactive,inactive,inactive,inactive,770 nM,inactive,inactive,inactive,inactive,inactive,360 nM,inactive,solubility [2]: 17.6 µM; solubility [5]: 7.3 µM; CC50 at 96 h [6]: > 307000 nM; EC50 [7]: 27 nM; selectivity ratio (in vitro [9]): > 11400; selectivity ratio (in vitro [13]): 1
Cc1cc(C)cc(C(=O)c2cc(Br)ccc2OCCn2ccc(=O)[nH]c2=O)c1,inactive,inactive,> 282000 nM,inactive,inactive,inactive,inactive,inactive,inactive,inactive,inactive,inactive,770 nM,inactive,inactive,inactive,inactive,inactive,1700 nM,inactive,solubility [2]: 6.6 µM; solubility [5]: 1.8 µM; CC50 at 96 h [6]: > 282000 nM; EC50 [7]: 23 nM; selectivity ratio (in vitro [9]): > 12300; selectivity ratio (in vitro [13]): 1
Cc1ccc(OCCn2ccc(=O)[nH]c2=O)c(C(=O)c2ccccc2)c1,inactive,inactive,> 357000 nM,inactive,inactive,inactive,inactive,inactive,inactive,inactive,inactive,inactive,5600 nM,inactive,inactive,inactive,inactive,inactive,1700 nM,inactive,CC50 at 96 h [6]: > 357000 nM; EC50 [7]: 310 nM; selectivity ratio (in vitro [9]): > 1140; selectivity ratio (in vitro [13]): 1
Cc1cc(C)cc(C(=O)c2cc(Cl)ccc2OCCn2cc(C)c(=O)[nH]c2=O)c1,inactive,inactive,4090 nM,inactive,inactive,inactive,inactive,inactive,inactive,inactive,inactive,inactive,1200 nM,inactive,inactive,inactive,inactive,inactive,1100 nM,inactive,CC50 at 96 h [6]: > 303000 nM; EC50 [7]: 44 nM; selectivity ratio (in vitro [9]): > 6880; selectivity ratio (in vitro [13]): > 74
